pEC50: −log10 of the molar value.

The target in this assay is G. pallida SER-7 (Globodera pallida, UniProt A0A183BS20, DEL280-286/G462A/H333Q/S454N/S6T/Y334H). Briefly: Cut head pharyngeal pumping assay, ser-7 (tm1325) expressing Gpa-ser-7.

As usually defined, the pEC50 is the EC50 on a negative log10 scale, so that one unit is a factor of ten. Take `NCCc1c[nH]c2ccc(O)cc12` [serotonin, 5-hydroxytryptamine]: the pEC50 is 5.41.

The record behind these values is US20210360924A1, “PLANT OR SEED COATING” (University of Southampton, priority 2017, published 2021).
